Measurements published in paper doi:10.1101/2021.02.21.432137v1 (biorxiv, 2021).

Legend:
Conditions in all cases: binder
[1] = biological target: T1, JAK3 (Homo sapiens, UniProt P52333)
T1 sequence (P52333 1-1124): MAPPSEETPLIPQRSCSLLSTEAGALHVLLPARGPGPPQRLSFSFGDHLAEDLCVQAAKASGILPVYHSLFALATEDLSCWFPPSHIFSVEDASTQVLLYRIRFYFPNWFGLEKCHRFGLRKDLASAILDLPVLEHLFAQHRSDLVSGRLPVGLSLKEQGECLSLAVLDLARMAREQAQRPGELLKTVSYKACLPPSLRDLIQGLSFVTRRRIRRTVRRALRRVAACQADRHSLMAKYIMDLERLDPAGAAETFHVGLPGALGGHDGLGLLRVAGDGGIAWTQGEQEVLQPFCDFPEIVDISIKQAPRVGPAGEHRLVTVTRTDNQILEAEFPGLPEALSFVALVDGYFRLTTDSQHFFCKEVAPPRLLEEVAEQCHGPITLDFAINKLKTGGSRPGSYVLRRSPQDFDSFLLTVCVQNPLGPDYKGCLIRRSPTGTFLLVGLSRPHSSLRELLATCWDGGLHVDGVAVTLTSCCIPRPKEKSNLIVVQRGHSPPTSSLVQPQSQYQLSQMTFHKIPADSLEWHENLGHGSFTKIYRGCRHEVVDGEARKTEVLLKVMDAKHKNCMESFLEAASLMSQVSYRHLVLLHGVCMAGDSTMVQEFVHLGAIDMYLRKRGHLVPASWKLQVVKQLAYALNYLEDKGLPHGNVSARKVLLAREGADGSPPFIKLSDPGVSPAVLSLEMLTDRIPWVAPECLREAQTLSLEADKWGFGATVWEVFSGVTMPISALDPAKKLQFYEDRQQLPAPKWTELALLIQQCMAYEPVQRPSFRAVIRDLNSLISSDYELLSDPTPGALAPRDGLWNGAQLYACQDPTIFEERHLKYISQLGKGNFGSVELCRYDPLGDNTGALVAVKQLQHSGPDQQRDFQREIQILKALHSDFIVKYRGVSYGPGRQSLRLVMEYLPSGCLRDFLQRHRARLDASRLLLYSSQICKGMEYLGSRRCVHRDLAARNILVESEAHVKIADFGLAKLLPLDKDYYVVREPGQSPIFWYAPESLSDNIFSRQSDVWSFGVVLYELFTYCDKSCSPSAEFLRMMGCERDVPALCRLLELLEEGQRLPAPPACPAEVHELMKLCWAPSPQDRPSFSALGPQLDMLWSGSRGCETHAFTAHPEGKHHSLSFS

[2] = biological target: T2, NUAK1 (Homo sapiens, UniProt O60285)
T2 sequence (O60285 1-661): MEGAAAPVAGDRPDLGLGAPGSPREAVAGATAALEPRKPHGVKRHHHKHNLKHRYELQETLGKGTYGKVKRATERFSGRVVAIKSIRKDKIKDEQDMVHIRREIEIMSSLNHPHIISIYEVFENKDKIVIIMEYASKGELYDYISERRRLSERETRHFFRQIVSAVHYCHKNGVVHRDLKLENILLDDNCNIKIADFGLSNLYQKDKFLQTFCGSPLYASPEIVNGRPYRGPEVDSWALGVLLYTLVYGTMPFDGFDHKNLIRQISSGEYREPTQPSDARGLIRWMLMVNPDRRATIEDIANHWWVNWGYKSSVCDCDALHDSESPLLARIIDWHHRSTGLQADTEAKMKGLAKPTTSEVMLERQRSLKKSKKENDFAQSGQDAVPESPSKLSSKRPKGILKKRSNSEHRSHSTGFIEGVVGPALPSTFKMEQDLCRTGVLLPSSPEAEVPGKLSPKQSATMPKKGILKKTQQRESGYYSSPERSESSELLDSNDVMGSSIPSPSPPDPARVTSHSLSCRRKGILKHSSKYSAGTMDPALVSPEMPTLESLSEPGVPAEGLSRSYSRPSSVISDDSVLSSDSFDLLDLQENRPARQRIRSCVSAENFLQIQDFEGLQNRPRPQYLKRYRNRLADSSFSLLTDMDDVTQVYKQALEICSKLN

[3] = biological target: RIOK2 (Homo sapiens, UniProt Q9BVS4)
Sequence of RIOK2 (Q9BVS4 whole entry): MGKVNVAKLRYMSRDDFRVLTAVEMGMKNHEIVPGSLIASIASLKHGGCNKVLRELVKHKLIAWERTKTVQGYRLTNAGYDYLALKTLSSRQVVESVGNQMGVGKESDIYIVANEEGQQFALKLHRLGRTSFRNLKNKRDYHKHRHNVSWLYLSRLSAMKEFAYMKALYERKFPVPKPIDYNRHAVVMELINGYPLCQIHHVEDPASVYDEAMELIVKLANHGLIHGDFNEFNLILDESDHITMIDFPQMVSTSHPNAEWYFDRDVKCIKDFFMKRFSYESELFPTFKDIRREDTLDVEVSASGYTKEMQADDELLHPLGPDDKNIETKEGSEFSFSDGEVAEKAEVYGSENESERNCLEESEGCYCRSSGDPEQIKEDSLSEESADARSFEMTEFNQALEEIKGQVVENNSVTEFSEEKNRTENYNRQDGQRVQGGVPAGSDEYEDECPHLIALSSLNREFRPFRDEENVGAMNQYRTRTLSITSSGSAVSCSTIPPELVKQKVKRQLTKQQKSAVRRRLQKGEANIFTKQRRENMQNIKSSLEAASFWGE

[4] = biological target: JAK2 (Homo sapiens, UniProt O60674)
Sequence of JAK2 (O60674 whole entry): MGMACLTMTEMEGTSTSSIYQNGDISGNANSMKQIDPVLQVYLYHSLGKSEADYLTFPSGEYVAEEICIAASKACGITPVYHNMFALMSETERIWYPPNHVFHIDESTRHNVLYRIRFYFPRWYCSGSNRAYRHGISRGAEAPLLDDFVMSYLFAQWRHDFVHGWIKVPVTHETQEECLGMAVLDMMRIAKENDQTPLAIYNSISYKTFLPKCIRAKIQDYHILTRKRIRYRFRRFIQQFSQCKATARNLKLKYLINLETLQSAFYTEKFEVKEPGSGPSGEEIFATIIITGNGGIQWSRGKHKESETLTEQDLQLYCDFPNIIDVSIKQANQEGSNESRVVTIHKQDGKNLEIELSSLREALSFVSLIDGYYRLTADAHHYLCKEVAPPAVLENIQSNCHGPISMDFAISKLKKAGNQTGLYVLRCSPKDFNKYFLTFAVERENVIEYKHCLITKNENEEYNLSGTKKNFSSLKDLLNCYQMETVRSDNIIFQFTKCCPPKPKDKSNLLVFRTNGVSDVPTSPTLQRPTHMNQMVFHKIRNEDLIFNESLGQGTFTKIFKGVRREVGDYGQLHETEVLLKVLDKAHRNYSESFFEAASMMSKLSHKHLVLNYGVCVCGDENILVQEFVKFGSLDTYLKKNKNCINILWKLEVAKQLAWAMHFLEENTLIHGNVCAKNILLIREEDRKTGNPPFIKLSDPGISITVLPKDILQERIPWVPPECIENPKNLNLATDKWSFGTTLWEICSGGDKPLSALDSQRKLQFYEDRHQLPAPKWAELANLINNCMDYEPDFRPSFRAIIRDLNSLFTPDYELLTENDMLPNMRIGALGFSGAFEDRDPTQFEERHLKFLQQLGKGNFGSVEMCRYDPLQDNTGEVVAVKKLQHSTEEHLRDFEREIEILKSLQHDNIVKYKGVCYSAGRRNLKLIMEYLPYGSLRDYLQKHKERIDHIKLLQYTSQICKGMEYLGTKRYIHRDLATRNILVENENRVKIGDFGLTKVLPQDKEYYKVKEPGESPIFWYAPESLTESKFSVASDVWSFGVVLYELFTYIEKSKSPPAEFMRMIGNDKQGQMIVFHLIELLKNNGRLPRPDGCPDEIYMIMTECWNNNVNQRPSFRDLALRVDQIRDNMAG

Compound A1 PoC [1]: 0.7% | Compound A1 PoC [2]: 4.1% | Compound A1 PoC [3]: 0% | Compound A1 PoC [4]: 0.4%
SMILES: C[C@H](NC(=O)c1c[nH]c2ncc(C3CC3)nc12)C(C)(C)C [A1, UNC-BE4-017]
